Source: patent US9610245B2, “Ophthalmic composition” (Drug Delivery Solutions Limited, priority 2011, dated 2017)

Experiment: Ex vivo permeation of cyclosporine through cornea, Ussing diffusion cells
Format: in vitro ADME, rabbit
Conditions: excipient changed in or added to the Example 1 formulation
Procedure: In order to determine the permeation of cyclosporine (CsA) formulations into and through the cornea, ex vivo studies were conducted. In brief, the corneas from rabbits were taken and mounted onto Ussing diffusion cells incubated at 37° C. and perfused with carbogen (95/5 oxygen/[…]). Approximately 3 ml sample was placed in the donor side of the chamber, 3 ml Ringers solution (6.5 g NaCl, 0.42 g KCl, 0.25 g CaCl2 and […] of Sodium bicarbonate per litre; isotonic solution pH 7.2) was placed in the receptor side of the chamber.
Permeation across the cornea was determined by collecting 200 μl receptor phase at the appropriate time points. At time zero and at 8 hours (termination of the experiment) 100 μl of sample from the donor phase was taken for analysis. Corneas were collected and split into the stomal and epithelial parts. The cyclosporine in the cornea sections were analysed after extraction into 50/50 methanol/water. Levels of CsA in the receptor chamber, the cornea and in the donor chamber were determined by HPLC analysis. Formulations used were based on Example 1. The table below summarises the changes made to this formulation.

- effect of excipient on permeation of CsA into and through the cornea: no significant effect
Substance: benzalkonium chloride
